# Test results: patent US20060204975A1, “Markers for cyclin dependent kinase inhibitors” (Cyclacel Limited, priority 2003, published 2006)
# Tests used:
# CDK 9 = CDK 9 (Homo sapiens, UniProt P50750); conditions: cited from earlier work
# Apolipoprotein A1 = test: SELDI-TOF-MS plasma proteomic profile, 28 kDa biomarker cluster; format: in vivo, human; conditions: plasma fraction 4, SAX chip pH9, 16 Phase 1b patients
# Procedure: (§1) All samples were stored at −80° C. in aliquots.
# (§2) Proteins were then detected with the ProteinChip® Reader.
# 7 kDa biomarker cluster = test: SELDI-TOF-MS plasma proteomic profile, 7 kDa biomarker cluster; format: in vivo, human; conditions: 16 Phase 1b patients, last day of treatment
# Procedure: as §1, §2
# PNUTS = test: QPCR of PNUTS in whole blood (PAXgene) exposed in vitro to CYC202; format: cell-based, human; conditions: whole blood of several donors exposed in vitro to 30 μM CYC202 for […]
# Procedure: In addition, RNA from whole blood samples was analysed by QPCR. Blood from volunteers was collected into Vacutainer Heparin CPT tubes. […] The blood was then transferred into PAXgene tubes (PreAnalytiX), inverted several times, and placed at −20° C. after an initial incubation of 2 hours at room temperature to allow lysis of the cells. When ready for analysis, blood was left to thaw at room temperature for approximately 2 hours, and then processed according to the manufacturer's instructions. The optional DNase digestion step was included. RNA samples were quantified and then used directly in QPCR assays.
# In addition, where the expression levels of housekeeper genes have been measured in these samples, the data has been normalized using a derivative of this formula: 2^ΔCttarget/2^ΔCthousekeeper Results
# Blood from volunteers was collected into Vacutainer Heparin CPT tubes at Hawkhill Medical Centre, Dundee and treated as described above in Example 2. […]
# Blood that had been stored for various lengths of time and under various storage conditions was left to thaw at room temperature for approximately 2 hours, and then processed according to the manufacturer's instructions. […] RNA samples were quantified and then used directly in QPCR assays.
# [1] = Pharmacokinetic analysis of breast cancer patient 02-2-01 (08); format: in vivo, human; conditions: 600 mg b.i.d. oral, Day 1
# Procedure: Effects on PNUTS and other target genes in vitro has been observed with concentrations of 7.5-15 μM for 1.5-3 hours, which is within the range represented here.
# CDK 7 = CDK 7 (Homo sapiens, UniProt P50613); conditions: cited from earlier work
# Chain of CDK 7 (P50613 whole entry, species assumed): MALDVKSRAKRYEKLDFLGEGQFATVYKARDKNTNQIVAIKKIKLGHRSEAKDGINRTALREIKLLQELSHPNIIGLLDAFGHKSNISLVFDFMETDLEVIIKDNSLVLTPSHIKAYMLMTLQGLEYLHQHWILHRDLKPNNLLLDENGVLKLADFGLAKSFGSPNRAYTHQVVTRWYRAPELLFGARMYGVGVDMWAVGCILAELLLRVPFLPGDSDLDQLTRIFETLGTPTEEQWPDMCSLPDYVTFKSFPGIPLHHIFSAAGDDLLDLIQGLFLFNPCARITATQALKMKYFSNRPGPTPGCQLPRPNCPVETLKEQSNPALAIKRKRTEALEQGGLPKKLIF
# Chain of CDK 7 (P51946 whole entry partner, species assumed): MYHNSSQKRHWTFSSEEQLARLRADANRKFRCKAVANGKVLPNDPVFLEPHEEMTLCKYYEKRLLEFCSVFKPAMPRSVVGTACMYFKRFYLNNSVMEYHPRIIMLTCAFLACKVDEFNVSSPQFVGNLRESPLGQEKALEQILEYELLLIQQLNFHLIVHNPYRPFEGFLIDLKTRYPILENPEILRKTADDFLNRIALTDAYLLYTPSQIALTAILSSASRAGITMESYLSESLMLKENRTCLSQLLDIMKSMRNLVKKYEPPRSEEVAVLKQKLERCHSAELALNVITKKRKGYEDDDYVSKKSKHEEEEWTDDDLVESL
# cell cycle progression = conditions: cited from earlier work
# A549 cells = test: Affymetrix microarray gene expression in CYC202 treated A549 cells; format: cell-based, human; conditions: 45 and 75 micromolar
# Procedure: HT29 and A549 cells, which are derived from human colon and lung tumours respectively, were seeded at approximately 20% confluency, which was equivalent to 1.5×10^6 cells per 10 cm plate in DMEM containing 10% FCS, so that they were actively proliferating upon treatment with the compound the following day.
# […]. RNA was extracted from the A549 cells used in the microarray experiment using TRIZOL reagent (Invitrogen) according to the manufacturer's instructions. For all other cell lines, total RNA was extracted from the cultures with the RNeasy Midi Kit (Qiagen, Hilden, Germany) according to the manufacturer's instructions. […] RNA was eluted in RNase-free water and quantified using RiboGreen (Molecular Probes, Leiden, The Netherlands). […]
# RNA extracted from A549 cells was used with the Hu Gene FL Cartridge while RNA from HT-29 cells and PBMC was loaded onto Hu Gene U133A Cartridges. […] The biotinylated cRNA was detected with an antibody amplification step using normal goat IgG as blocking reagent, final concentration 0.1 mg/ml (Sigma) and biotinylated anti-streptavidin antibody (goat), final concentration […] (Vector Laboratories). […] The readings from the quantitative scanning were analysed by the Affymetrix Gene Expression Analysis Software. […]
# Data from the Affymetrix Chips were analysed at individual time points following CYC202 treatment.
# Chain of CDK 9 (P50750 whole entry, species assumed): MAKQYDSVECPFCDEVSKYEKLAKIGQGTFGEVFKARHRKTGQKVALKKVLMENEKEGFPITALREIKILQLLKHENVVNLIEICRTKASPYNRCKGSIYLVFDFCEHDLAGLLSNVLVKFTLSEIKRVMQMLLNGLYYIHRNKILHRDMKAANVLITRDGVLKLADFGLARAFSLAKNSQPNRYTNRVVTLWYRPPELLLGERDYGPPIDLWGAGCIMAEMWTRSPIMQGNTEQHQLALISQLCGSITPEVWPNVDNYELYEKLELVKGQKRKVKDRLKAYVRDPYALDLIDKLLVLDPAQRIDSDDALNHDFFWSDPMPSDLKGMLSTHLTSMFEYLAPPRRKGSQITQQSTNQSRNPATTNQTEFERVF
# Chain of CDK 9 (O60563 whole entry partner, species assumed): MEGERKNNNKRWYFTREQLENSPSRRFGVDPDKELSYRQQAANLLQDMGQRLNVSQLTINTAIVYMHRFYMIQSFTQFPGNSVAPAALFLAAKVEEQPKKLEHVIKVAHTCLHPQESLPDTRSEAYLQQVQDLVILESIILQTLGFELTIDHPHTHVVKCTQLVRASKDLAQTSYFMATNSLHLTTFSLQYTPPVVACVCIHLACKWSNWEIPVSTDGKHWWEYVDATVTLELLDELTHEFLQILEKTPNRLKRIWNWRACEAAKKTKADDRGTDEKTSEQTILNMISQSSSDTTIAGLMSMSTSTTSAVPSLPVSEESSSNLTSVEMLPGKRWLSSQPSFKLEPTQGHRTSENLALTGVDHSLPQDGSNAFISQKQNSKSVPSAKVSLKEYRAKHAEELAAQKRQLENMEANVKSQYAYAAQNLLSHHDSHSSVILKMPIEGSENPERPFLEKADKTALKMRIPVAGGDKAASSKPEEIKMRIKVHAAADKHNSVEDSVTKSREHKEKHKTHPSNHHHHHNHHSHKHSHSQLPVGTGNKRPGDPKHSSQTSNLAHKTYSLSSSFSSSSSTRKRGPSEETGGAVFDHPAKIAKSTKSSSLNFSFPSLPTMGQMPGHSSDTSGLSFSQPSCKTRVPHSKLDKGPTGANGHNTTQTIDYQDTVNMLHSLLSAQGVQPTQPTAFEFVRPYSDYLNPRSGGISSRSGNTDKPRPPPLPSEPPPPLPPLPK
smiles,measurement,setting,value
"CC[C@H](CO)Nc1nc(NCc2ccccc2)c2ncn(C(C)C)c2n1 [CYC202, 2-(R)-(1-ethyl-2-hydroxyethylamino)-6-benzylamino-9-isopropylpurine]",inhibition of CDK 9,CDK 9,inhibit
same,"normalised intensity M/Z 28126, after treatment group","Apolipoprotein A1; last day of treatment, before treatment 32.0+/−9.6, p=0.0058",20.4+/−9.9
same,"normalised intensity M/Z 27923, after treatment group","Apolipoprotein A1; last day of treatment, before treatment 50.6+/−11.8, p=0.00097",31.8+/−13.7
same,change of marker M/Z 28799 after vs before treatment,Apolipoprotein A1; p=0.19,not deemed to be statistically significant
same,change of marker M/Z 28292 after vs before treatment,Apolipoprotein A1; p=0.95,not deemed to be statistically significant
same,"normalised intensity M/Z 6984, after treatment group","7 kDa biomarker cluster; neat plasma, CM10 chip, other group 3.1+/−1.2, p=0.0000014",42.2+/−11.8
same,"normalised intensity M/Z 6787, after treatment group","7 kDa biomarker cluster; neat plasma, CM10 chip, other group 5.6+/−1.9, p=0.0000014",27.5+/−10.4
same,"normalised intensity M/Z 6998, after treatment group","7 kDa biomarker cluster; plasma fraction 6, H50 chip, other group 2.1+/−0.7, p=0.0000031",42.0+/−9.1
same,"normalised intensity M/Z 6799, after treatment group","7 kDa biomarker cluster; plasma fraction 6, H50 chip, other group 2.9+/−1.2, p=0.0000031",29.1+/−8.1
same,expression of PNUTS normalised to housekeeper (HPRT),PNUTS,reproducibly down-regulated
same,plasma levels of CYC202,[1],maintained efficacious levels of CYC202 over several hours
same,inhibition of CDK 7,CDK 7,inhibit
same,effect on cell cycle progression,cell cycle progression,block cell cycle progression in late G1/early S and in M-phase
same,"gene expression (microarray, genes of FIG. 9/11)",A549 cells; 2 hr,significantly down regulated
same,"gene expression (microarray, genes of FIG. 10/12)",A549 cells; 4 hr,significantly down regulated
